In the assay the target is T1, PE-labeled human PD-L1-Ig binding to Jurkat cell line over-expressing human PD-1 (Jurkat-PD-1) (Homo sapiens, UniProt Q15116).
T1 construct: expressed in transfected cells; host or cells: Jurkat
Kind of assay: Jurkat-PD-1 Cell Binding High-Content Screening Assay (CBA): Method 1. The note with it: Jurkat-hPD-1 cells, PE-labeled PD-L1-Ig 20 nM final; read-out: Jurkat HPDL1 PD1 IC50 (uM) (Method 1).

Numbered stars: 1 amine (or outer) side, 2 acyl side, 3 side chain; on linkers, the order of the positions; unused ones are H or OH. Bridge positions count the residues as written; N and C are the ends. Square brackets hold non-standard residues; d marks the D form. Peptide text beside a SMILES is read from it. * marks the point of attachment. ξ: configuration not given here. Phe(4-CONH2) = NC(=O)c1ccc(C[C@H](N)C(=O)O)cc1; Phe(4-COOH) = N[C@@H](Cc1ccc(C(=O)O)cc1)C(=O)O; X28 = O=C([C@H](Cc1ccc2ccncc2c1)N[*:1])[*:2]; Phe(4-CH2NH2) = NCc1ccc(C[C@H](N)C(=O)O)cc1; Bip = N[C@@H](Cc1ccc(-c2ccccc2)cc1)C(=O)O; Phe(2-Cl) = N[C@@H](Cc1ccccc1Cl)C(=O)O; Phe(3-F) = N[C@@H](Cc1cccc(F)c1)C(=O)O; Phe(3-Me) = Cc1cccc(C[C@H](N)C(=O)O)c1; Val(3-OH) = CC(C)(O)[C@H](N)C(=O)O; 4Pal = N[C@@H](Cc1ccncc1)C(=O)O; Cha = N[C@@H](CC1CCCCC1)C(=O)O; Cit = NC(=O)NCCC[C@H](N)C(=O)O; Ile(3ξ) = CCC(C)[C@H](N)C(=O)O; Thr(3ξ) = CC(O)[C@H](N)C(=O)O; NMeNle = CCCC[C@H](NC)C(=O)O; Pen = CC(C)(S)[C@H](N)C(=O)O; Carboxymethyl = O=C(O)C*; NMeA = CN[C@@H](C)C(=O)O; Nle = CCCC[C@H](N)C(=O)O; Dab = NCC[C@H](N)C(=O)O; Dap = NC[C@H](N)C(=O)O; ξC = NC(CS)C(=O)O

T1 sequence (Q15116 25-288): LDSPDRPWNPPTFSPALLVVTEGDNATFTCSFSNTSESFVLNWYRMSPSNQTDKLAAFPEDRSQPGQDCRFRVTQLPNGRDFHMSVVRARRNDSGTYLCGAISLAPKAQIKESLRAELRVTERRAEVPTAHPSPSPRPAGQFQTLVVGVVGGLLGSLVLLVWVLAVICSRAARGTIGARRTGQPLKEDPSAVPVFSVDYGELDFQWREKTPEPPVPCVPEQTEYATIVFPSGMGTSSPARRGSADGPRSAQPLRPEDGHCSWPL

For orientation: IC50 means the concentration that gives 50% inhibition. In the case of `CC(C)C[C@H]1NC(=O)[C@H](C)N(C)C(=O)[C@H](C(C)C)NC(=O)[C@H](Cc2ccc(-c3ccccc3)cc2)NC(=O)[C@H](C(C)C)NC(=O)[C@H](Cc2c[nH]c3ccccc23)NC(=O)[C@H](CC(=O)O)NC(=O)[C@H](Cc2ccc(O)cc2)NC(=O)[C@H](CC(N)=O)NC(=O)CSC[C@@H](C(=O)N[C@@H](C)C(N)=O)NC(=O)[C@H]([C@@H](C)O)NC(=O)[C@H](C(C)C)NC(=O)[C@H](CC2CCCCC2)NC(=O)[C@H](CCN)NC1=O` [Compound 1296] ({CH2CO}-NYDWV[Bip]V[NMeA][dL][Dab][Cha]VTCA-NH2; thioether N-14), the IC50 came out at 0.01 µM.

Take `CC(C)C[C@@H]1NC(=O)[C@H](Cc2c[nH]c3ccccc23)NC(=O)[C@H](CC(=O)O)NC(=O)[C@H](Cc2ccc(O)cc2)NC(=O)[C@H](Cc2ccccc2)NC(=O)CSC[C@@H](C(=O)NCC(N)=O)NC(=O)[C@H](CO)NC(=O)[C@H](C(C)C)NC(=O)[C@H](CC(C)C)NC(=O)[C@H](CC(=O)O)NC(=O)[C@@H](CC(=O)O)NC(=O)[C@H](C)N(C)C(=O)[C@H](C(C)C)NC(=O)[C@H](Cc2ccc(-c3ccccc3)cc2)NC1=O` [Compound 1829] ({CH2CO}-FYDWL[Bip]V[NMeA][dD]DLVSCG-NH2; thioether N-14): the IC50 came to 0.85 µM. For `Cc1cccc(C[C@@H]2NC(=O)[C@H](CC(=O)O)NC(=O)[C@H](Cc3ccc(OCC(=O)O)cc3)NC(=O)[C@H](C(C)O)NC(=O)CSC[C@@H](C(=O)N[C@@H](CCN)C(N)=O)NC(=O)[C@H](CO)NC(=O)[C@H](C(C)(C)O)NC(=O)[C@H](CC3CCCCC3)NC(=O)[C@H](CCN)NC(=O)[C@@H](CC(C)C)NC(=O)[C@H](C)N(C)C(=O)[C@H](Cc3ccc(OCC(=O)O)cc3)NC(=O)[C@H](Cc3ccc(-c4ccccc4)cc3)NC(=O)[C@H](Cc3ccc(C(=O)O)cc3)NC2=O)c1` (stereo partly drawn) [Compound 2150] ({CH2CO}-[Thr(3ξ)]Y(Carboxymethyl)D[Phe(3-Me)][Phe(4-COOH)][Bip]Y(Carboxymethyl)[NMeA][dL][Dab][Cha][Val(3-OH)]SC[Dab]-NH2; thioether N-14), the IC50 is 0.01 µM.

On to `CC(C)C[C@@H]1NC(=O)[C@H](CCCNC(=N)N)NC(=O)[C@@H](C)NC(=O)[C@H](C)N(C)C(=O)[C@H](CCCNC(=N)N)NC(=O)[C@H](Cc2ccc(-c3ccccc3)cc2)NC(=O)[C@H](C(C)C)NC(=O)[C@H](Cc2c[nH]c3ccccc23)NC(=O)[C@H](CC(=O)O)NC(=O)[C@H](Cc2ccc(O)cc2)NC(=O)[C@H](Cc2ccccc2)NC(=O)CSC[C@@H](C(=O)NCC(N)=O)NC(=O)[C@H](CO)NC(=O)[C@H](C(C)C)NC1=O` [Compound 1016] ({CH2CO}-FYDWV[Bip]R[NMeA][dA]RLVSCG-NH2; thioether N-14), for which the IC50 stood at 0.13 µM. With `Cc1cccc(C[C@@H]2NC(=O)[C@H](CC(=O)O)NC(=O)[C@H](Cc3ccc(OCC(=O)O)cc3)NC(=O)[C@H](CN)NC(=O)CSC[C@@H](C(N)=O)NC(=O)[C@H](CCC(N)=O)NC(=O)[C@H](C(C)C)NC(=O)[C@H](CC3CCCCC3)NC(=O)[C@H](CCN)NC(=O)[C@@H](CC(C)C)NC(=O)[C@H](C)N(C)C(=O)[C@H](Cc3ccc(OCC(=O)O)cc3)NC(=O)[C@H](Cc3ccc(-c4ccccc4)cc3)NC(=O)[C@H](Cc3ccc(OCC(=O)O)cc3)NC2=O)c1` [Compound 1649] ({CH2CO}-[Dap]Y(Carboxymethyl)D[Phe(3-Me)]Y(Carboxymethyl)[Bip]Y(Carboxymethyl)[NMeA][dL][Dab][Cha]VQC-NH2; thioether N-14), the 50% inhibitory concentration (IC50) stood at 0.1 µM. `CC(C)C[C@H]1NC(=O)[C@H](C)N(C)C(=O)[C@H](C(C)C)NC(=O)[C@H](Cc2ccc(-c3ccccc3)cc2)NC(=O)[C@H](C(C)C)NC(=O)[C@H](Cc2c[nH]c3ccccc23)NC(=O)[C@H](CC(=O)O)NC(=O)[C@H](Cc2ccncc2)NC(=O)[C@H](Cc2ccc(CN)cc2)NC(=O)CSC[C@@H](C(N)=O)NC(=O)[C@H](CO)NC(=O)[C@H](C(C)C)NC(=O)[C@H](CC2CCCCC2)NC(=O)[C@H](CC(N)=O)NC1=O` [Compound 2242] ({CH2CO}-[Phe(4-CH2NH2)][4Pal]DWV[Bip]V[NMeA][dL]N[Cha]VSC-NH2; thioether N-14): the IC50 amounted to 0.03 µM.

Regarding `CCC(C)[C@@H]1NC(=O)[C@H](Cc2ccc(-c3ccccc3)cc2)NC(=O)[C@H](C(C)C)NC(=O)[C@H](Cc2c[nH]c3ccccc23)NC(=O)[C@H](CC(=O)O)NC(=O)[C@H](Cc2ccc(O)cc2)NC(=O)[C@H](Cc2ccc3ccncc3c2)NC(=O)CSCC(C(=O)NCC(=O)O)NC(=O)[C@H](C(C)O)NC(=O)[C@H](C(C)C)NC(=O)[C@H](CC2CCCCC2)NC(=O)[C@H](CCN)NC(=O)[C@@H](CC(C)C)NC(=O)[C@H](C)N(C)C1=O` (stereo partly drawn) [Compound 2219] ({CH2CO}-[X28]YDWV[Bip][Ile(3ξ)][NMeA][dL][Dab][Cha]V[Thr(3ξ)][ξC]G-OH; thioether N-14), the IC50 worked out at 0.02 µM. Under `CC(C)C[C@@H]1NC(=O)[C@H](Cc2c[nH]c3ccccc23)NC(=O)[C@H](CC(=O)O)NC(=O)[C@H](Cc2ccccc2Cl)NC(=O)[C@H](Cc2ccccc2)NC(=O)CSC[C@@H](C(=O)N[C@@H](C)C(N)=O)NC(=O)[C@H](CO)NC(=O)[C@H](C(C)C)NC(=O)[C@H](CC(C)C)NC(=O)[C@H](CC(N)=O)NC(=O)[C@@H](C)NC(=O)[C@H](C)N(C)C(=O)[C@H](C(C)C)NC(=O)[C@H](Cc2ccc(-c3ccccc3)cc2)NC1=O` [Compound 1807] ({CH2CO}-F[Phe(2-Cl)]DWL[Bip]V[NMeA][dA]NLVSCA-NH2; thioether N-14) stands 0.24 µM; under `CCCC[C@H]1C(=O)N[C@H](CC(C)C)C(=O)N[C@@H](CCN)C(=O)N[C@@H](CC(C)C)C(=O)N[C@@H](C(C)C)C(=O)N[C@@H]([C@@H](C)O)C(=O)N[C@H](C(=O)N[C@@H](C)C(N)=O)CSCC(=O)N[C@@H](CC(N)=O)C(=O)N[C@@H](Cc2ccc(O)cc2)C(=O)N[C@@H](CC(=O)O)C(=O)N[C@@H](Cc2c[nH]c3ccccc23)C(=O)N[C@@H](C(C)C)C(=O)N[C@@H](Cc2ccc(-c3ccccc3)cc2)C(=O)N[C@@H](C(C)C)C(=O)N1C` [Compound 1365] ({CH2CO}-NYDWV[Bip]V[NMeNle][dL][Dab]LVTCA-NH2; thioether N-14), 0.01 µM.

Regarding `CCCC[C@@H]1NC(=O)[C@H](CCCNC(=N)N)NC(=O)[C@@H](CC(C)C)NC(=O)[C@H](C)N(C)C(=O)[C@H]([C@@H](C)CC)NC(=O)[C@H](Cc2ccc(-c3ccccc3)cc2)NC(=O)[C@H](C(C)C)NC(=O)[C@H](Cc2c[nH]c3ccccc23)NC(=O)[C@H](CC(=O)O)NC(=O)[C@H](Cc2ccc(O)cc2)NC(=O)[C@H](CC(N)=O)NC(=O)CSC[C@@H](C(=O)N[C@@H](C)C(N)=O)NC(=O)[C@H]([C@@H](C)O)NC(=O)[C@H](C(C)C)NC1=O` [Compound 1498] ({CH2CO}-NYDWV[Bip]I[NMeA][dL]R[Nle]VTCA-NH2; thioether N-14), the IC50 amounted to 0.12 µM. In the case of `Cc1cccc(C[C@@H]2NC(=O)[C@H](CC(=O)O)NC(=O)[C@H](Cc3ccc(OCC(=O)O)cc3)NC(=O)[C@H](Cc3ccc(OCC(=O)O)cc3)NC(=O)CSC(C)(C)[C@@H](C(=O)N[C@H](C)C(N)=O)NC(=O)[C@H](CCCNC(N)=O)NC(=O)[C@H](C(C)C)NC(=O)[C@H](CC3CCCCC3)NC(=O)[C@H](CCN)NC(=O)[C@@H](CC(C)C)NC(=O)[C@H](C)N(C)C(=O)[C@H](Cc3cnc[nH]3)NC(=O)[C@H](Cc3ccc(-c4ccccc4)cc3)NC(=O)[C@H](Cc3ccc(C(N)=O)cc3)NC2=O)c1` [Compound 2126] ({CH2CO}-Y(Carboxymethyl)Y(Carboxymethyl)D[Phe(3-Me)][Phe(4-CONH2)][Bip]H[NMeA][dL][Dab][Cha]V[Cit][Pen][dA]-NH2; thioether N-14), the IC50 stood at 0.66 µM. Take `CC[C@H](C)[C@@H]1NC(=O)[C@H](Cc2ccc(-c3ccccc3)cc2)NC(=O)[C@H](C(C)(C)O)NC(=O)[C@H](Cc2cccc(C)c2)NC(=O)[C@H](CC(=O)O)NC(=O)[C@H](Cc2ccc(O)cc2)NC(=O)[C@H](CC(N)=O)NC(=O)CSC[C@@H](C(=O)N[C@H](C)C(N)=O)NC(=O)[C@H]([C@@H](C)O)NC(=O)[C@H](C(C)(C)O)NC(=O)[C@H](CC2CCCCC2)NC(=O)[C@H](CCN)NC(=O)[C@@H](CC(C)C)NC(=O)[C@H](C)N(C)C1=O` [Compound 1694] ({CH2CO}-NYD[Phe(3-Me)][Val(3-OH)][Bip]I[NMeA][dL][Dab][Cha][Val(3-OH)]TC[dA]-NH2; thioether N-14): the 50% inhibitory concentration (IC50) worked out at 0.1 µM. `CCC(C)[C@@H]1NC(=O)[C@H](Cc2ccc(-c3ccccc3)cc2)NC(=O)[C@H](CC(C)C)NC(=O)[C@H](Cc2c[nH]c3ccccc23)NC(=O)[C@H](CC(=O)O)NC(=O)[C@H](Cc2ccc(OCC(=O)O)cc2)NC(=O)[C@H](C(C)O)NC(=O)CSC[C@@H](C(=O)N[C@@H](CC(N)=O)C(=O)O)NC(=O)[C@H](CN)NC(=O)[C@H](C(C)C)NC(=O)[C@H](CC(C)C)NC(=O)[C@H](CCN)NC(=O)[C@@H](CC(C)C)NC(=O)[C@H](C)N(C)C1=O` (stereo partly drawn) [Compound 2228] ({CH2CO}-[Thr(3ξ)]Y(Carboxymethyl)DWL[Bip][Ile(3ξ)][NMeA][dL][Dab]LV[Dap]CN-OH; thioether N-14): the IC50 was 0.12 µM. As to `CCNC(=O)[C@H](CCN)NC(=O)[C@@H]1CSCC(=O)N[C@@H](Cc2ccncc2)C(=O)N[C@@H](Cc2ccc(OCC(=O)O)cc2)C(=O)N[C@@H](CC(=O)O)C(=O)N[C@@H](Cc2cccc(C)c2)C(=O)N[C@@H](Cc2cccc(F)c2)C(=O)N[C@@H](Cc2ccc(-c3ccccc3)cc2)C(=O)N[C@@H](Cc2ccc(OCC(=O)O)cc2)C(=O)N(C)[C@@H](C)C(=O)N[C@H](CC(C)C)C(=O)N[C@@H](CCN)C(=O)N[C@@H](CC2CCCCC2)C(=O)N[C@@H](C(C)(C)O)C(=O)N[C@@H](CO)C(=O)N1` [Compound 1845] ({CH2CO}-[4Pal]Y(Carboxymethyl)D[Phe(3-Me)][Phe(3-F)][Bip]Y(Carboxymethyl)[NMeA][dL][Dab][Cha][Val(3-OH)]SC[Dab]-NHEt; thioether N-14), the IC50 amounted to 0.01 µM.

The values above are taken from patent US20240409585A1, “MACROCYCLIC IMMUNOMODULATORS” (priority 2021, published 2024).
